pIC50: −log10 of the molar value.
Experiments:
Assay type in all cases: cell-based
MX-1 cells = assay: CellTiter-Glo cell viability, MX-1; details: Homo sapiens, MX1, 72 h
Description: (§1) The cell viability of 50 cancer cell lines was studied after treatment with Compound 121. Inhibition concentration values at 50% (IC50) were determined using CellTiter-Glo luminescent cell viability assay after incubation with different compound concentrations. GI50 values were determined according to the examples described above. Each cell line was treated with Compound 121, a standard chemotherapy drug as a reference control, and culture medium as a vehicle control.
(§2) All cells were cultured in media supplemented with 10-15% FBS at 37° C. in the presence of 5% CO2 and at 95% humidity. The culture medium was purchased from GIBCO or Sigma, USA. Cisplatin was chosen as the reference control and purchased from Hospira Australia Pty Ltd. The cell lines studied are presented in Table 5.
(§3) Cells were harvested during a logarithmic growth period and cell number count was determined using Count-star. Cell concentrations were adjusted to 4.44×10^4 cells/mL with respective culture medium. 90 μL of cell suspensions were added to two 96-well plates (plates A and B) with a final cell density of 4×10^3 cells/well.
(§4) 10 μL of culture medium was added to each well of plate A for TO reading. The plate was allowed to equilibrate at room temperature for approximately 30 min. 50 μL of CellTiter-Glo was added to each well and the contents were mixed for 5 min on an orbital shaker to induce cell lysis. The plate was allowed to incubate at room temperature for 20 min to stabilize luminescent signal.
(§5) 10 μM Compound 121 in media was serially diluted 3.16-fold to achieve 9 dose levels. Similarly, 100 μM reference control in media was serially diluted 3.16-fold to prepare reference control solutions. 10 μL drug solution and 10 μL of reference control was dispensed into each well in plate B.
(§6) Test plate B was incubated for 72 h in a humidified incubator at 37° C. in the presence of 5% CO2 and then subjected to CTG assay. The plate was allowed to equilibrate at room temperature for about 30 min. 50 μL of CellTiter-Glo was added to each well and the contents were mixed for 5 min on an orbital shaker to induce cell lysis. The plate was allowed to incubate at room temperature for 20 min to stabilize luminescent signal.
(§7) IC50 and GI50 values for each of the 50 cell lines are presented in Table 6 and were calculated based on the dose-response curves depicted in FIGS. 1-50. The dose-response curves were fitted using nonlinear regression model with a sigmoidal dose response. The formula for calculating survival rate was calculated by the formula:
(§8) Survival rate (%)=(LumTest article−LumMedium control)/(LumNone treated−LumMedium control)×100.

HuCCT1 cells = assay: CellTiter-Glo cell viability, HuCCT1; details: Homo sapiens, HuCCT-1, 72 h
Description: as §1, §2, §3, §4, §5, §6, §7, §8

SK-MEL-28 cells = assay: CellTiter-Glo cell viability, SK-MEL-28; details: Homo sapiens, 72 h
Description: as §1, §2, §3, §4, §5, §6, §7, §8

HT-29 cells = assay: CellTiter-Glo cell viability, HT-29; details: Homo sapiens, 72 h
Description: as §1, §2, §3, §4, §5, §6, §7, §8

EBC-1 cells = assay: CellTiter-Glo cell viability, EBC-1; details: Homo sapiens, 72 h
Description: as §1, §2, §3, §4, §5, §6, §7, §8

SK-OV-3 cells = assay: CellTiter-Glo cell viability, SK-OV-3; details: Homo sapiens, 72 h
Description: as §1, §2, §3, §4, §5, §6, §7, §8

MES-SA/DX5 cells = assay: CellTiter-Glo cell viability, MES-SA/DX5; details: Homo sapiens, 72 h
Description: as §1, §2, §3, §4, §5, §6, §7, §8

AsPC-1 cells = assay: CellTiter-Glo cell viability, AsPC-1; details: Homo sapiens, ASPC1, 72 h
Description: as §1, §2, §3, §4, §5, §6, §7, §8

U251 cells = assay: CellTiter-Glo cell viability, U251; details: Homo sapiens, U-251, 72 h
Description: as §1, §2, §3, §4, §5, §6, §7, §8

MDA-MB-468 cells = assay: CellTiter-Glo cell viability, MDA-MB-468; details: Homo sapiens, 72 h
Description: as §1, §2, §3, §4, §5, §6, §7, §8

OVCAR-3 cells = assay: CellTiter-Glo cell viability, OVCAR-3; details: Homo sapiens, 72 h
Description: as §1, §2, §3, §4, §5, §6, §7, §8

NCI-H1975 cells = assay: CellTiter-Glo cell viability, NCI-H1975; details: Homo sapiens, 72 h
Description: as §1, §2, §3, §4, §5, §6, §7, §8

JEG-3 cells = assay: CellTiter-Glo cell viability, JEG-3; details: Homo sapiens, 72 h
Description: as §1, §2, §3, §4, §5, §6, §7, §8

K-562 cells = assay: CellTiter-Glo cell viability, K-562; details: Homo sapiens, K562, 72 h
Description: as §1, §2, §3, §4, §5, §6, §7, §8

RPMI 8226 cells = assay: CellTiter-Glo cell viability, RPMI 8226; details: Homo sapiens, 72 h
Description: as §1, §2, §3, §4, §5, §6, §7, §8

SNU-5 cells = assay: CellTiter-Glo cell viability, SNU-5; details: Homo sapiens, SNU-5, SN1J-5 cells, 72 h
Description: as §1, §2, §3, §4, §5, §6, §7, §8

HCT-15 cells = assay: CellTiter-Glo cell viability, HCT-15; details: Homo sapiens, 72 h
Description: as §1, §2, §3, §4, §5, §6, §7, §8

HUH-7 cells = assay: CellTiter-Glo cell viability, HUH-7; details: Homo sapiens, 72 h
Description: as §1, §2, §3, §4, §5, §6, §7, §8

FaDu cells = assay: CellTiter-Glo cell viability, FaDu; details: Homo sapiens, 72 h
Description: as §1, §2, §3, §4, §5, §6, §7, §8

143B cells = assay: CellTiter-Glo cell viability, 143B; details: Homo sapiens, 72 h
Description: as §1, §2, §3, §4, §5, §6, §7, §8

PC-3 cells = assay: CellTiter-Glo cell viability, PC-3; details: Homo sapiens, 72 h
Description: as §1, §2, §3, §4, §5, §6, §7, §8

[1] = top conc. 10 μM Compound 121, 100 μM cisplatin

`Cc1cc(N2CCOC[C@@H]2C)ccc1-c1ccc(CC(=O)NCc2ccc(F)cc2)nc1` [Compound 121] gave a GI50 (MX-1 cells; read-out: Absolute GI50) of 11 nM, a pIC50 (MX-1 cells; read-out: Absolute IC50) of 7.74 and an inhibition at 10 µM (MX-1 cells; [1]) of 66.8%. It also gave a GI50 (HuCCT1 cells; read-out: Absolute GI50) of 4 nM, a pIC50 (HuCCT1 cells; read-out: Absolute IC50) of 8.40 and an inhibition at 10 µM (HuCCT1 cells; [1]) of 54%. For the same molecule, the GI50 (SK-MEL-28 cells; read-out: Absolute GI50) was 4 nM, the pIC50 (SK-MEL-28 cells; read-out: Absolute IC50) was < 5.00 and the inhibition at 10 µM (SK-MEL-28 cells; [1]) was 52.9%. The GI50 (HT-29 cells; read-out: Absolute GI50) was 4 nM, the pIC50 (HT-29 cells; read-out: Absolute IC50) was 8.40 and the inhibition at 10 µM (HT-29 cells; [1]) was 78.5%. It also gave a GI50 (EBC-1 cells; read-out: Absolute GI50) of 4 nM, a pIC50 (EBC-1 cells; read-out: Absolute IC50) of 8.40 and an inhibition at 10 µM (EBC-1 cells; [1]) of 56.8%. It also gave a GI50 (SK-OV-3 cells; read-out: Absolute GI50) of 4 nM, a pIC50 (SK-OV-3 cells; read-out: Absolute IC50) of 8.40 and an inhibition at 10 µM (SK-OV-3 cells; [1]) of 66.2%. For the same molecule, the GI50 (MES-SA/DX5 cells; read-out: Absolute GI50) was 7 nM, the pIC50 (MES-SA/DX5 cells; read-out: Absolute IC50) was 8.15 and the inhibition at 10 µM (MES-SA/DX5 cells; [1]) was 97.8%. For the same molecule, the GI50 (AsPC-1 cells; read-out: Absolute GI50) was 12 nM, the pIC50 (AsPC-1 cells; read-out: Absolute IC50) was < 5.00 and the inhibition at 10 µM (AsPC-1 cells; [1]) was 51.2%. For the same molecule, the GI50 (U251 cells; read-out: Absolute GI50) was 9 nM, the pIC50 (U251 cells; read-out: Absolute IC50) was 8.05 and the inhibition at 10 µM (U251 cells; [1]) was 75%. The GI50 (MDA-MB-468 cells; read-out: Absolute GI50) was 7 nM, the pIC50 (MDA-MB-468 cells; read-out: Absolute IC50) was 8.05 and the inhibition at 10 µM (MDA-MB-468 cells; [1]) was 80%. For the same molecule, the GI50 (OVCAR-3 cells; read-out: Absolute GI50) was 5 nM, the pIC50 (OVCAR-3 cells; read-out: Absolute IC50) was 8.22 and the inhibition at 10 µM (OVCAR-3 cells; [1]) was 64.8%. It also gave a GI50 (NCI-H1975 cells; read-out: Absolute GI50) of 6 nM, a pIC50 (NCI-H1975 cells; read-out: Absolute IC50) of 8.22 and an inhibition at 10 µM (NCI-H1975 cells; [1]) of 83.7%. For the same molecule, the GI50 (JEG-3 cells; read-out: Absolute GI50) was 8 nM, the pIC50 (JEG-3 cells; read-out: Absolute IC50) was 8.05 and the inhibition at 10 µM (JEG-3 cells; [1]) was 86.5%. It also gave a GI50 (K-562 cells; read-out: Absolute GI50) of 6 nM, a pIC50 (K-562 cells; read-out: Absolute IC50) of 8.22 and an inhibition at 10 µM (K-562 cells; [1]) of 98.1%. It also gave a GI50 (RPMI 8226 cells; read-out: Absolute GI50) of 5 nM, a pIC50 (RPMI 8226 cells; read-out: Absolute IC50) of 8.22 and an inhibition at 10 µM (RPMI 8226 cells; [1]) of 94.8%. For the same molecule, the GI50 (SNU-5 cells; read-out: Absolute GI50) was 11 nM, the pIC50 (SNU-5 cells; read-out: Absolute IC50) was 7.92 and the inhibition at 10 µM (SNU-5 cells; [1]) was 96.2%. It also gave a GI50 (HCT-15 cells; read-out: Absolute GI50) of 5 nM, a pIC50 (HCT-15 cells; read-out: Absolute IC50) of 8.22 and an inhibition at 10 µM (HCT-15 cells; [1]) of 96.8%. For the same molecule, the GI50 (HUH-7 cells; read-out: Absolute GI50) was 7 nM, the pIC50 (HUH-7 cells; read-out: Absolute IC50) was 8.05 and the inhibition at 10 µM (HUH-7 cells; [1]) was 60.8%. The GI50 (FaDu cells; read-out: Absolute GI50) was 7 nM, the pIC50 (FaDu cells; read-out: Absolute IC50) was 8.10 and the inhibition at 10 µM (FaDu cells; [1]) was 85.9%. For the same molecule, the GI50 (143B cells; read-out: Absolute GI50) was 8 nM, the pIC50 (143B cells; read-out: Absolute IC50) was 8.10 and the inhibition at 10 µM (143B cells; [1]) was 97.8%. The GI50 (PC-3 cells; read-out: Absolute GI50) was 8 nM, the pIC50 (PC-3 cells; read-out: Absolute IC50) was 8.10 and the inhibition at 10 µM (PC-3 cells; [1]) was 93.3%.

— US20210196724A1, “BIARYL COMPOSITIONS AND METHODS FOR MODULATING A KINASE CASCADE” (Athenex, Inc., priority 2016, published 2021)
